{"source": "patent US8304452B2", "about": "“Radical scavenger and active oxygen eliminating agent” (InBiotex Inc., priority 2005, dated 2012)", "key": {"[1]": {"experiment": "Superoxide anion-scavenging activity, DMPO spin trapping ESR (Example 8)", "type": "biochemical", "details": "FIG. 8", "method": "In a 50 mM phosphate buffer (pH 7.8), 500 μM xanthine and 75 mU/mL xanthine oxidase reacted together. The generated superoxide anion (O^2−) was assayed with a spin trapping agent (DMPO) by the electron spin resonance method (ESR). The resulting signal intensity (I) was normalized with the signal intensity of the inner standard manganese (S). The resulting value was determined as the relative intensity (RI), for comparison between the value in case of the addition of the test substance and the value in case of the addition of PBS. The ESR was measured under the following conditions. MicroWave Powder: 8 mW; Field: 335±5 mT; Scan Time: 2 min; Mod.: 0.1 mT; Amplitude:×125-400; Time Constant: 0.03 sec."}, "[2]": {"tested_on": "VEGF-triggered vascularization", "experiment": "Vascularization-suppressing action, VEGF matrigel plug (Example 9)", "type": "in vivo, C57BL/6 mice", "details": "40 μM in matrigel plug containing 100 ng/mL VEGF; 6 days later; P<0.05; FIG. 9", "method": "5-S-GAD was added to a matrigelplug containing 100 ng/mL VEGF, for injections into female C57BL/6 mice. 6 days later, the matrigel plug was scissored out, to assay the hemoglobin content in the matrigel. The results are shown in mean±standard deviation. Testing were done by the Student's t test (*P<0.05)."}, "[3]": {"tested_on": "human LDL", "experiment": "Effect on the oxidation of LDL in human blood, TBARS (Example 11)", "type": "biochemical", "details": "LDL + 5 μM CuSO4, TBARS; FIG. 11", "method": "LDL was prepared by a fractionation and centrifugation method. A fraction at a specific gravity of 1.019 to 1.063 g/mL in serum was defined as human LDL. 5 μM CuSO4, 5-S-GAD (3 to 100 μM) and N-acetyl-carnosine (100 μM to 10 mM) or L-carnosine (10 μM to 10 mM) were added to 0.2 mg/mL LDL, for incubation at 37° C. for 3 hours. After termination of the incubation, TEARS (a substance reactive with thiobarbituric acid) was assayed. Although the TBA reaction is a non-specific reaction, the reaction is used for a method of assaying various lipid peroxide products including malone dialdehyde. An experiment of peroxidation with copper sulfate was done twice (N=2).\nAn aqueous solution containing 3.75 mg/mL thiobarbituric acid (TBA), 150 mg/mL trichloroacetic acid (TCA) and 0.25 N hydrochloric acid (HCl) was prepared as the TBA reagent, while standard solutions (2, 5, 10, 20, 40 μM) of tetramethoxypropane were prepared. 100 μL each of an LDL sample or a standard solution was added together with 200 μL of the TBA reagent into an Eppendorf tube (1.5 mL), which was then sealed with a cap for thorough mixing. […] The supernatant was assayed of the absorbance (535 nm). Based on the absorbance of the standard solution, a standard curve was prepared. Based on the standard curve, the amount of TBARS in the LDL sample was calculated (in nmol/mg LDL protein) (see FIG. 11)."}, "[4]": {"experiment": "DPPH-scavenging activity versus TEMPOL (Example 5)", "type": "biochemical", "details": "60 μM DPPH, 1 to 1000 μM test substance, 5 minutes; FIG. 5", "method": "5-S-GAD or TEMPOL was added to an ethanol solution of 60 μM DPPH to a final concentration of 1 to 1000 μM, for reaction at ambient temperature for 5 minutes. Subsequently, the concentration of the DPPH radical was measured via the absorbance at 517 nm. The DPPH radical concentration in a reaction solution to which PBS(−) instead of the test substance was added, was used as a control. In the same manner as in Example 2, the scavenging ratio (%) of the DPPH radical was calculated and defined as the radical-scavenging activity (see FIG. 5)."}}}
{"smiles": "NCCC(=O)N[C@@H](Cc1cc(O)c(O)c(SC[C@H](NC(=O)CC[C@H](N)C(=O)O)C(=O)NCC(=O)O)c1)C(=O)O", "note": "[5-S-GAD, N-β-alanyl-5-S-glutathionyl-3,4-dihydroxyphenylalanine]", "values": [{"measurement": "superoxide anion (O^2−)-scavenging action compared with TEMPOL (in words)", "setting": "[1]", "result": "excellent superoxide anion (O^2−)-scavenging action compared with TEMPOL"}, {"measurement": "suppression of VEGF-triggered vascularization (hemoglobin content in the matrigel)", "setting": "[2]", "result": "suppressed significantly"}, {"measurement": "anti-oxidation action compared with N-acetyl-carnosine and L-carnosine (in words)", "setting": "[3]", "result": "excellent anti-oxidation action compared with N-acetyl-carnosine and L-carnosine"}, {"measurement": "DPPH radical-scavenging action compared with TEMPOL (in words)", "setting": "[4]", "result": "excellent DPPH radical-scavenging action compared with TEMPOL"}]}
